Measurements taken from patent publication US9573960B2, “Glioblastoma inhibiting compounds and their use” (Life & Brain GmbH, priority 2011, dated 2017).

Experiments:
[1] = test system: patient-specific primary human glioblastoma cells (pGBMs); test: Pharmacodynamic analysis of GAA and GA, AlamarBlue (IMC50); assay type: cell-based; details: for inhibition of the metabolic activity of pGBMs: FIG. 14A
Protocol: To validate the results obtained from primary screening, these compounds were purchased from independent suppliers (FIG. 13). Pharmacodynamic analysis was conducted by determining the concentrations that decreased the metabolic activity of pGBMs to 50% control levels (IMC50). […] For further analysis, pGBMs were collected at five days following single-dose in vitro application of the respective compound.
(§1) Considering the cellular and genetic diversity that characterizes GBM, we next investigated GAA's pharmacological effect in 17 pGBM samples derived from 11 patients (see Table 2 for list of samples and patient data). […] Next, pair-wise comparison of GAA-pharmacodynamics was performed in pGBMs to stratify results according to key clinical constellations (Bredel et al., 2011; Glas et al., 2010; Simpson et al., 2006; Weller et al., 2010). Glioblastoma samples derived from (i) the tumor center vs. periphery region of the same patient, (ii) primary vs. recurrent disease of the same patient, (iii) MGMT-promoter hypermethylated vs. unmethylated tissue, (iv) p53 wild type vs. p53 mutated samples, as well as from (v) NFKBIA wild type vs. NFKBIA deleted genotypes.
For pharmacodynamic analysis, 5×10^4 cells were plated in 12-well-plates at 24 hours before application of compound-series. […] Experiments were performed in triplicates. IMC50 was defined as the compound concentration that reduced the metabolic activity by 50% compared to control conditions and determined via data analysis in GraphPad Prism 4.0.

[2] = test system: self-renewing, multipotent cells among pGBMs; test: Neurosphere assay after GA or GAA pre-treatment; assay type: cell-based, human; details: single pre-treatment, vital cells collected at day 5
Source text: In a next series of experiments we aimed to determine the influence of the compounds on the activity of tumor-initiating cells (TICs). TICs embody a severe functional consequence of intra-tumor heterogeneity as, at least in human glioblastoma, it is anticipated that they are represented by a small subpopulation of stem-like, i.e. self-renewing and multipotent cells (e.g. Sties and Rowitch, 2008; Zhou et al., 2009). In previous work, we established their frequencies in the range from 0.25 to 1% among culture passage 5-10 pGBMs (see Glas et al., 2010). To estimate potential compound-induced alterations to the pool of self-renewing and multipotent cells in pGBMs, the neurosphere assay (NSA) was applied as recently described (Scheffler et al., 2005; Glas et al., 2010). Heterogeneous pGBM samples (#'s 046, 078, 106) were exposed to the compounds, vital cells were collected at day 5, and processed under non-adherent conditions in the NSA (neurosphere assay, see methods).
The neurosphere assay was performed to estimate the frequency of self-renewing clonogenic cells according to established protocols (Glas et al., 2010; Scheffler et al., 2005). Neurospheres were quantified at 21 days in culture, triturated to a single cell suspension, and re-plated for analysis of the secondary and tertiary neurospheres. […]

[3] = test system: pGBMs (#046); test: Orthotopic xenotransplantation of pre-treated pGBMs; assay type: in vivo, Rag2Il2rg−/− mice; details: pGBMs pre-treated 5 days at IMC50, 10^6 cells into striatum, vs DMSO
Protocol: FIG. 18: Gambogig acid amide decreases the tumor-initiating potential of pGBMs. pGBMs (#046) were treated with IMC50 concentrations of the respective compounds for 5 days in vitro. […] surviving vital cells were subsequently collected and injected into the striatum of adult immunocompromised mice (n=5 for each experiment). (A) Kaplan-Meier curves show no significant survival advantage upon injection of pGBMs pre-treated with gambogic acid (dotted) vs. DMSO controls (solid).
Cells were harvested, counted and re-suspended in 0.1% DNase/PBS. Cellular viability was confirmed via trypan blue exclusion. 10^6 DMSO-control-, gambogic acid or gambogic acid amide-pretreated pGBMs were injected stereotactically into the striatum of 12 week old Rag2Il2rg^−/− mice (0.8 mm anterior, 2 mm lateral, 3 mm deep). Mice were monitored daily and euthanized upon presentation with signs of distress/neurological symptoms or significant weight loss. For subsequent histological analysis, brains were removed, cryoprotected, and serially cut on a cryostat (Leica) at 20 μm thickness. Every fifth section underwent routine H&E staining for histological analysis of tumor formation.

[4] = test system: CD133+ vs. CD133− pGBM cells; test: CD133+ vs CD133- pGBM cells, metabolic activity and cell confluency; assay type: cell-based, human; details: IMC50, 5 days after single exposure
Source text: FIG. 19: Preferred targeting of CD133^+ GBM cells by Gambogig acid amide. (A) FACS-based identification and sorting of CD133^+ subpopulations from pGBMs (#106, top; #058, bottom). Note the respective frequency of CD133^+ cells is indicated within the panel). (B) Relative metabolic activity and cell confluency of CD133-positive vs. CD133-negative pGBM cells determined at 5 days after single exposure of Gambogic acid (IMC50, top) and Gambogic acid amide (IMC50, bottom). Note the selective sensitivity of CD133^+ cells in response to application of Gambogic acid amide.
To further corroborate the cancer stem cell-specific inhibitory activity of GAA, we selected CD133-positive and -negative cell populations from pGBMs (FIG. 19). CD133^+ cells are known among glioblastoma samples to represent a minority of tumorigenic stem-like phenotypes (Singh et al., 2004). Comparative evaluation of the inhibitory effects induced by GAA and GA on CD133^+ vs. CD133^− pGBM cells confirmed our assumption.
For fluorescence-activated cell separation (FACS), cells were stained with CD133/2-PE or with CD133/2-APC (both 1:20; Miltenyi Biotech) and sorted on a BD FACS DiVa Cell Sorter (Becton Dickinson).

[5] = test system: four patient-specific primary GBM cultures; test: cells; details: Homo sapiens, read-out: cellular viability of pGBMs, control levels
Protocol: (§2) Before screening, cell number was titrated for each cell line separately to ensure that cell proliferation remained in a linear-exponential phase throughout the experiment. 24 hours after seeding 2−3×10^3 cells/well into laminin/poly-L-ornithine coated 96-well plates, primary cultures were treated with 2 nM, 1 μM or 10 μM of each compound (stock solution 10 mM in DMSO). As a reference we treated cells with 50 μM and 500 μM temozolomide (TMZ, SigmaAldrich, Taufkirchen, Germany; stock solution of 100 mM in DMSO). Control cells were treated with 0.5-0.01% DMSO. Six days after application, cell viability was determined using the AlamarBlue® assay according to the manufacturers recommendations (Invitrogen, Karlsruhe, Germany). Fluorescence was measured using an Infinite200 microplate reader (Tecan, Crailsheim, Germany) at Xex=540 nm and Xem=590 nm. Experiments were performed in triplicates for each sample.
(§3) To identify cytotoxic and cytostatic compounds, we conducted in vitro drug-screening assays in four different patient-specific primary GBM cultures (see Table 1 for basic characterization of research specimens).
(§4) The compound library was screened at three different concentrations (10 μM, 1 μM, 2 nM). The relative metabolic activity was determined after a 5-day incubation with compounds. […] For reference, we applied 50 μM (reported plasma peak concentration) and 500 μM of temozolomide (TMZ, as described in Beier et al., 2008), the current standard chemotherapeutic GBM drug to our cells. […] However, “hits” in the setting of a primary screening were defined as a reduction of the relative metabolic activity under the level of 50% of DMSO-treated control cells.

[6] = test system: LN229, T98G, U87, U138, and U373 cells; test: Pharmacodynamic analysis in commercial glioma/GBM cell lines; assay type: cell-based; details: compared with pGBM IMC50's
Protocol: as §1
For pharmacodynamic analysis, 5×10^4 cells were plated in 12-well-plates at 24 hours before application of compound-series. AlamarBlue®-based analysis was conducted at 5 days post treatment. Experiments were performed in triplicates. IMC50 was defined as the compound concentration that reduced the metabolic activity by 50% compared to control conditions and determined via data analysis in GraphPad Prism 4.0.

[7] = test system: four patient-specific primary GBM cultures; details: 1 μM
Protocol: as §2, §3, §4

| SMILES | inhibition of the metabolic activity of pGBMs [1] | frequency of self-renewing, multipotent cells (primary, secondary, tertiary spheres) [2] | survival of animals that received pre-treated pGBMs [3] | selective reduction of cell growth and viability among CD133+ vs CD133− cells [4] | viability at 1 µM [5] | time of induction of inhibitory activity ([1]; day 1, 2 or 5 following exposure, versus Gambogic acid) | IC50 ([1]; pGBM #106, day 5) | IC50 ([1]; pGBM #132, day 5) | inhibitory activity compared with GA (dose-response) ([1]; triplicate analysis for each sample) | inhibitory activity in commercial glioma/GBM cell lines [6] | cellular viability of pGBMs, control levels [7] |
| --- | --- | --- | --- | --- | --- | --- | --- | --- | --- | --- | --- |
| CC(C)=CCC[C@]1(C)C=Cc2c(O)c3c(c(CC=C(C)C)c2O1)O[C@]12C(=C[C@@H]4C[C@H]1C(C)(C)O[C@@]2(C/C=C(/C)C(=O)O)C4=O)C3=O [GA, Gambogic acid] | effectively and to a comparable degree | no GA-induced alteration | not evident | could not be revealed | < 50% | – | – | – | – | – | – |
| CC(C)=CCC[C@]1(C)C=Cc2c(O)c3c(c(CC=C(C)C)c2O1)O[C@]12C(=C[C@@H]4CC1C(C)(C)O[C@@]2(C/C=C(/C)C(N)=O)C4=O)C3=O [GAA, Gambogic acid amide] | effectively and to a comparable degree | considerably reduced frequency | significantly increased survival | significantly stronger reduction | – | earlier time point | 0.514 µM | 0.078 µM | consistently at lower concentrations | Comparable results | below 50% |
